In brackets after ≈: the same amount, converted by molar mass.
Legend:
Staphylococcus aureus [1] = experiment: Antibacterial activity against vancomycin-susceptible Staphylococcus aureus RN4220; type: functional
Staphylococcus aureus [2] = experiment: Antibacterial activity against methicillin-resistant vancomycin-susceptible Staphylococcus aureus SR-3637; type: functional; details: SR3637
Staphylococcus aureus [3] = experiment: Antibacterial activity against vancomycin A-resistant Staphylococcus aureus VRS2; type: functional
Enterococcus faecium [4] = experiment: Antibacterial activity against vancomycin-susceptible Enterococcus faecium SR-16972; type: functional; details: SR16972
Enterococcus faecium [5] = experiment: Antibacterial activity against vancomycin A-resistant Enterococcus faecium SR-7940; type: functional; details: SR7940
Enterococcus faecium [6] = experiment: Antibacterial activity against vancomycin B-resistant Enterococcus faecium SR-23598; type: functional; details: SR23598
Enterococcus faecalis [7] = experiment: Antibacterial activity against vancomycin-susceptible Enterococcus faecalis SR1004; type: functional
Enterococcus faecalis [8] = experiment: Antibacterial activity against vancomycin A-resistant Enterococcus faecalis SR-7914; type: functional; details: SR7914
Enterococcus faecalis [9] = experiment: Antibacterial activity against vancomycin B-resistant Enterococcus faecalis SR-23630; type: functional; details: SR23630
[10] = Binding affinity to 8-Amino-octanoyl-D-Ala-D-Ala peptide by surface plasmon resonance

Row | Compound | MIC (Staphylococcus aureus [1]) [µg/mL] | MIC (Staphylococcus aureus [2]) [µg/mL] | MIC (Staphylococcus aureus [3]) [µg/mL] | MIC (Enterococcus faecium [4]) [µg/mL] | MIC (Enterococcus faecium [5]) [µg/mL] | MIC (Enterococcus faecium [6]) [µg/mL] | MIC (Enterococcus faecalis [7]) [µg/mL] | MIC (Enterococcus faecalis [8]) [µg/mL] | MIC (Enterococcus faecalis [9]) [µg/mL] | Kd [10] [µM]
1 | CCCCCC/C=C/c1cc2ccc1Oc1cc3cc(c1O[C@@H]1O[C@H](CO)[C@@H](O)[C@H](O)[C@H]1O[C@H]1C[C@](C)(N)[C@H](O)[C@H](C)O1)Oc1ccc(cc1/C=C/CCCCCC)[C@@H](O)[C@@H](NC(=O)[C@@H](CC(C)C)NC)C(=O)N[C@@H](CC(N)=O)C(=O)N[C@H]3C(=O)N[C@H]1C(=O)N[C@H](C(=O)N[C@H](C(=O)O)c3cc(O)cc(O)c3-c3cc1ccc3O)[C@@H]2O | 32 (≈ 20 µM) | 64 (≈ 40 µM) | > 64 | 32 (≈ 20 µM) | > 64 | > 64 | 32 (≈ 20 µM) | > 64 | > 64 | 11.6
2 | CN[C@H](CC(C)C)C(=O)N[C@H]1C(=O)N[C@@H](CC(N)=O)C(=O)N[C@H]2C(=O)N[C@H]3C(=O)N[C@H](C(=O)N[C@H](C(=O)O)c4cc(O)cc(O)c4-c4cc3ccc4O)[C@H](O)c3ccc(c(/C=C/CCCc4ccccc4)c3)Oc3cc2cc(c3O[C@@H]2O[C@H](CO)[C@@H](O)[C@H](O)[C@H]2O[C@H]2C[C@](C)(N)[C@H](O)[C@H](C)O2)Oc2ccc(cc2/C=C/CCCc2ccccc2)[C@H]1O | 32 (≈ 19.2 µM) | 64 (≈ 38.4 µM) | > 64 | 32 (≈ 19.2 µM) | > 64 | > 64 | 32 (≈ 19.2 µM) | > 64 | > 64 | –
3 | CN[C@H](CC(C)C)C(=O)N[C@H]1C(=O)N[C@@H](CC(N)=O)C(=O)N[C@H]2C(=O)N[C@H]3C(=O)N[C@H](C(=O)N[C@H](C(=O)O)c4cc(O)cc(O)c4-c4cc3ccc4O)[C@H](O)c3ccc(c(-c4ccccc4OC)c3)Oc3cc2cc(c3O[C@@H]2O[C@H](CO)[C@@H](O)[C@H](O)[C@H]2O[C@H]2C[C@](C)(N)[C@H](O)[C@H](C)O2)Oc2ccc(cc2Cl)[C@H]1O | 4 (≈ 2.63 µM) | 8 (≈ 5.26 µM) | 64 (≈ 42.1 µM) | 4 (≈ 2.63 µM) | > 64 | > 64 | 8 (≈ 5.26 µM) | > 64 | > 64 | –
4 | CN[C@H](CC(C)C)C(=O)N[C@H]1C(=O)N[C@@H](CC(N)=O)C(=O)N[C@H]2C(=O)N[C@H]3C(=O)N[C@H](C(=O)N[C@H](C(=O)O)c4cc(O)cc(O)c4-c4cc3ccc4O)[C@H](O)c3ccc(c(/C=C/c4ccccc4)c3)Oc3cc2cc(c3O[C@@H]2O[C@H](CO)[C@@H](O)[C@H](O)[C@H]2O[C@H]2C[C@](C)(N)[C@H](O)[C@H](C)O2)Oc2ccc(cc2Cl)[C@H]1O | 1 (≈ 0.659 µM) | 2 (≈ 1.32 µM) | 16 (≈ 10.5 µM) | 1 (≈ 0.659 µM) | > 64 | > 64 | 1 (≈ 0.659 µM) | > 64 | 64 (≈ 42.2 µM) | –
5 | CN[C@H](CC(C)C)C(=O)N[C@H]1C(=O)N[C@@H](CC(N)=O)C(=O)N[C@H]2C(=O)N[C@H]3C(=O)N[C@H](C(=O)N[C@H](C(=O)O)c4cc(O)cc(O)c4-c4cc3ccc4O)[C@H](O)c3ccc(c(/C=C/c4ccc(OC)cc4)c3)Oc3cc2cc(c3O[C@@H]2O[C@H](CO)[C@@H](O)[C@H](O)[C@H]2O[C@H]2C[C@](C)(N)[C@H](O)[C@H](C)O2)Oc2ccc(cc2Cl)[C@H]1O | 1 (≈ 0.646 µM) | 2 (≈ 1.29 µM) | 16 (≈ 10.3 µM) | 1 (≈ 0.646 µM) | > 64 | > 64 | 1 (≈ 0.646 µM) | > 64 | 32 (≈ 20.7 µM) | –
6 | CN[C@H](CC(C)C)C(=O)N[C@H]1C(=O)N[C@@H](CC(N)=O)C(=O)N[C@H]2C(=O)N[C@H]3C(=O)N[C@H](C(=O)N[C@H](C(=O)O)c4cc(O)cc(O)c4-c4cc3ccc4O)[C@H](O)c3ccc(c(/C=C/c4ccc(C(F)(F)F)cc4)c3)Oc3cc2cc(c3O[C@@H]2O[C@H](CO)[C@@H](O)[C@H](O)[C@H]2O[C@H]2C[C@](C)(N)[C@H](O)[C@H](C)O2)Oc2ccc(cc2Cl)[C@H]1O | 1 (≈ 0.631 µM) | 2 (≈ 1.26 µM) | 64 (≈ 40.4 µM) | 1 (≈ 0.631 µM) | > 64 | 32 (≈ 20.2 µM) | 1 (≈ 0.631 µM) | 64 (≈ 40.4 µM) | 2 (≈ 1.26 µM) | –
7 | CN[C@H](CC(C)C)C(=O)N[C@H]1C(=O)N[C@@H](CC(N)=O)C(=O)N[C@H]2C(=O)N[C@H]3C(=O)N[C@H](C(=O)N[C@H](C(=O)O)c4cc(O)cc(O)c4-c4cc3ccc4O)[C@H](O)c3ccc(c(-c4ccccc4)c3)Oc3cc2cc(c3O[C@@H]2O[C@H](CO)[C@@H](O)[C@H](O)[C@H]2O[C@H]2C[C@](C)(N)[C@H](O)[C@H](C)O2)Oc2ccc(cc2Cl)[C@H]1O | 4 (≈ 2.68 µM) | 4 (≈ 2.68 µM) | 64 (≈ 42.9 µM) | 2 (≈ 1.34 µM) | > 64 | > 64 | 4 (≈ 2.68 µM) | > 64 | 64 (≈ 42.9 µM) | –
8 | CN[C@H](CC(C)C)C(=O)N[C@H]1C(=O)N[C@@H](CC(N)=O)C(=O)N[C@H]2C(=O)N[C@H]3C(=O)N[C@H](C(=O)N[C@H](C(=O)O)c4cc(O)cc(O)c4-c4cc3ccc4O)[C@H](O)c3ccc(c(-c4ccc(OC)cc4)c3)Oc3cc2cc(c3O[C@@H]2O[C@H](CO)[C@@H](O)[C@H](O)[C@H]2O[C@H]2C[C@](C)(N)[C@H](O)[C@H](C)O2)Oc2ccc(cc2Cl)[C@H]1O | 4 (≈ 2.63 µM) | 4 (≈ 2.63 µM) | > 64 | 2 (≈ 1.31 µM) | > 64 | > 64 | 4 (≈ 2.63 µM) | > 64 | > 64 | –
9 | CCCCCC/C=C/c1cc2ccc1Oc1cc3cc(c1O[C@@H]1O[C@H](CO)[C@@H](O)[C@H](O)[C@H]1O[C@H]1C[C@](C)(N)[C@H](O)[C@H](C)O1)Oc1ccc(cc1Cl)[C@@H](O)[C@@H](NC(=O)[C@@H](CC(C)C)NC)C(=O)N[C@@H](CC(N)=O)C(=O)N[C@H]3C(=O)N[C@H]1C(=O)N[C@H](C(=O)N[C@H](C(=O)O)c3cc(O)cc(O)c3-c3cc1ccc3O)[C@@H]2O | 1 (≈ 0.656 µM) | 2 (≈ 1.31 µM) | > 64 | 2 (≈ 1.31 µM) | > 64 | > 64 | 2 (≈ 1.31 µM) | > 64 | > 64 | 3.77
10 | CN[C@H](CC(C)C)C(=O)N[C@H]1C(=O)N[C@@H](CC(N)=O)C(=O)N[C@H]2C(=O)N[C@H]3C(=O)N[C@H](C(=O)N[C@H](C(=O)O)c4cc(O)cc(O)c4-c4cc3ccc4O)[C@H](O)c3ccc(c(/C=C/CCCc4ccccc4)c3)Oc3cc2cc(c3O[C@@H]2O[C@H](CO)[C@@H](O)[C@H](O)[C@H]2O[C@H]2C[C@](C)(N)[C@H](O)[C@H](C)O2)Oc2ccc(cc2Cl)[C@H]1O | 1 (≈ 0.641 µM) | 2 (≈ 1.28 µM) | > 64 | 2 (≈ 1.28 µM) | > 64 | > 64 | 1 (≈ 0.641 µM) | > 64 | > 64 | –
11 | CN[C@H](CC(C)C)C(=O)N[C@H]1C(=O)N[C@@H](CC(N)=O)C(=O)N[C@H]2C(=O)N[C@H]3C(=O)N[C@H](C(=O)N[C@H](C(=O)O)c4cc(O)cc(O)c4-c4cc3ccc4O)[C@H](O)c3ccc(c(/C=C/c4ccc(-c5ccccc5)cc4)c3)Oc3cc2cc(c3O[C@@H]2O[C@H](CO)[C@@H](O)[C@H](O)[C@H]2O[C@H]2C[C@](C)(N)[C@H](O)[C@H](C)O2)Oc2ccc(cc2Cl)[C@H]1O | 0.25 (≈ 0.157 µM) | 0.5 (≈ 0.314 µM) | > 64 | 0.25 (≈ 0.157 µM) | 64 (≈ 40.2 µM) | 0.5 (≈ 0.314 µM) | 0.25 (≈ 0.157 µM) | 32 (≈ 20.1 µM) | 2 (≈ 1.26 µM) | –
12 | C/C=C/c1cc2ccc1Oc1cc3cc(c1O[C@@H]1O[C@H](CO)[C@@H](O)[C@H](O)[C@H]1O[C@H]1C[C@](C)(N)[C@H](O)[C@H](C)O1)Oc1ccc(cc1/C=C/C)[C@@H](O)[C@@H](NC(=O)[C@@H](CC(C)C)NC)C(=O)N[C@@H](CC(N)=O)C(=O)N[C@H]3C(=O)N[C@H]1C(=O)N[C@H](C(=O)N[C@H](C(=O)O)c3cc(O)cc(O)c3-c3cc1ccc3O)[C@@H]2O | 1 (≈ 0.685 µM) | 2 (≈ 1.37 µM) | 64 (≈ 43.8 µM) | 1 (≈ 0.685 µM) | > 64 | > 64 | 2 (≈ 1.37 µM) | > 64 | > 64 | –
13 | C/C=C/c1cc2ccc1Oc1cc3cc(c1O[C@@H]1O[C@H](CO)[C@@H](O)[C@H](O)[C@H]1O[C@H]1C[C@](C)(N)[C@H](O)[C@H](C)O1)Oc1ccc(cc1/C=C/CCCCCC)[C@@H](O)[C@@H]1NC(=O)[C@H](NC(=O)[C@@H]3NC(=O)[C@H](CC(N)=O)NC(=O)[C@H](NC(=O)[C@@H](CC(C)C)NC)[C@@H]2O)c2ccc(O)c(c2)-c2c(O)cc(O)cc2[C@@H](C(=O)O)NC1=O | 32 (≈ 20.9 µM) | 64 (≈ 41.8 µM) | > 64 | 32 (≈ 20.9 µM) | > 64 | > 64 | 32 (≈ 20.9 µM) | > 64 | > 64 | –
14 | CN[C@H](CC(C)C)C(=O)N[C@H]1C(=O)N[C@@H](CC(N)=O)C(=O)N[C@H]2C(=O)N[C@H]3C(=O)N[C@H](C(=O)N[C@H](C(=O)O)c4cc(O)cc(O)c4-c4cc3ccc4O)[C@H](O)c3ccc(c(Cl)c3)Oc3cc2cc(c3O[C@@H]2O[C@H](CO)[C@@H](O)[C@H](O)[C@H]2O[C@H]2C[C@](C)(N)[C@H](O)[C@H](C)O2)Oc2ccc(cc2Cl)[C@H]1O [VANCOMYCIN] | – | – | > 64 | – | > 64 | > 64 | 2 (≈ 1.38 µM) | > 64 | – | 3.39

Source: ChEMBL document CHEMBL1155426, “Discovery of a novel series of semisynthetic vancomycin derivatives effective against vancomycin-resistant bacteria” (J Med Chem, 2010)
